Assay [1] addresses T1, human TLR7 (Homo sapiens, UniProt Q9NYK1).
T1 construct: host or cells: HEK293 reporter cells
T1 sequence (Q9NYK1 27-1049): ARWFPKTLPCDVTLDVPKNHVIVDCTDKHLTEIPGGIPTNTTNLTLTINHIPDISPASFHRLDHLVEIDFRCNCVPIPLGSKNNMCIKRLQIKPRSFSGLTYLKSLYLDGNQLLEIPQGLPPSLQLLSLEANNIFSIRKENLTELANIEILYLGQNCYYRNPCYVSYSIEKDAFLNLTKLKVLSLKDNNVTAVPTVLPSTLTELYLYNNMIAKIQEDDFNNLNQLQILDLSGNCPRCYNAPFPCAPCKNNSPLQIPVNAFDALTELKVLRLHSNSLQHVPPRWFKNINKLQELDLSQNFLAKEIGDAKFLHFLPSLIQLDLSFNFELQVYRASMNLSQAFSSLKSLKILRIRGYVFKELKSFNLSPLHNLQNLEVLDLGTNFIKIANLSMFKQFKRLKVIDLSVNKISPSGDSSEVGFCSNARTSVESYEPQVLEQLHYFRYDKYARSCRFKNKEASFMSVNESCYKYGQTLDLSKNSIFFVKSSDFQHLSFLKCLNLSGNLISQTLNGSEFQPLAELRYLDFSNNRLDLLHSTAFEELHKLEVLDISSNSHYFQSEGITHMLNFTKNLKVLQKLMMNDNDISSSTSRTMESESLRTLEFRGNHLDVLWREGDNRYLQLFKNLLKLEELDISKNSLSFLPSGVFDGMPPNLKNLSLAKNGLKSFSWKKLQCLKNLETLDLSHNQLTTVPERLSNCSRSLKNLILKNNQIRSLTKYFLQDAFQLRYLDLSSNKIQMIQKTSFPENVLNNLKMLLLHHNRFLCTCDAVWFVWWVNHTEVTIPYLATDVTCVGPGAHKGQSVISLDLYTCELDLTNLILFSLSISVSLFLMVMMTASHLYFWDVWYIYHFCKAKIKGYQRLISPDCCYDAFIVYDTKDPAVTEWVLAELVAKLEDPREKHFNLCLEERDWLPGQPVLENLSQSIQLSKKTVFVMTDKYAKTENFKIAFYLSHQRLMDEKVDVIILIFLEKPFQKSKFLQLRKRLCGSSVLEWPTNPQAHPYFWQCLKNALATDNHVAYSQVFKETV
The experiment in a line: HEK293 NFKB reporter assay, human TLR7. It counts as cell-based. On the procedure:
(§1) Each compound was synthesized and purified by the methods in the Examples provided herein, characterized by mass spectrometry, and shown to have the mass indicated. Activity against HEK293 NFKB reporter cells expressing human TLR7 or human TLR8 was measured according to Example 68.
(§2) HEK293 reporter cells expressing human TLR7 or human TLR8 were purchased from Invivogen and vendor protocols were followed for cellular propagation and experimentation. Briefly, cells were grown to 80-85% confluence at 5% CO2 in DMEM supplemented with 10% FBS, Zeocin, and Blasticidin. Cells were then seeded in 96-well flat plates at 4×10^4cells/well with substrate containing HEK detection medium and immunostimulatory molecules. Activity was measured using a plate reader at 620-655 nm wavelength.
(A reporter such as luciferase makes a cellular process visible.)

In assay [2] the target is T2, human TLR8 (Homo sapiens, UniProt Q9NR97).
T2 construct: host or cells: HEK293 reporter cells
T2 sequence (Q9NR97 27-1041): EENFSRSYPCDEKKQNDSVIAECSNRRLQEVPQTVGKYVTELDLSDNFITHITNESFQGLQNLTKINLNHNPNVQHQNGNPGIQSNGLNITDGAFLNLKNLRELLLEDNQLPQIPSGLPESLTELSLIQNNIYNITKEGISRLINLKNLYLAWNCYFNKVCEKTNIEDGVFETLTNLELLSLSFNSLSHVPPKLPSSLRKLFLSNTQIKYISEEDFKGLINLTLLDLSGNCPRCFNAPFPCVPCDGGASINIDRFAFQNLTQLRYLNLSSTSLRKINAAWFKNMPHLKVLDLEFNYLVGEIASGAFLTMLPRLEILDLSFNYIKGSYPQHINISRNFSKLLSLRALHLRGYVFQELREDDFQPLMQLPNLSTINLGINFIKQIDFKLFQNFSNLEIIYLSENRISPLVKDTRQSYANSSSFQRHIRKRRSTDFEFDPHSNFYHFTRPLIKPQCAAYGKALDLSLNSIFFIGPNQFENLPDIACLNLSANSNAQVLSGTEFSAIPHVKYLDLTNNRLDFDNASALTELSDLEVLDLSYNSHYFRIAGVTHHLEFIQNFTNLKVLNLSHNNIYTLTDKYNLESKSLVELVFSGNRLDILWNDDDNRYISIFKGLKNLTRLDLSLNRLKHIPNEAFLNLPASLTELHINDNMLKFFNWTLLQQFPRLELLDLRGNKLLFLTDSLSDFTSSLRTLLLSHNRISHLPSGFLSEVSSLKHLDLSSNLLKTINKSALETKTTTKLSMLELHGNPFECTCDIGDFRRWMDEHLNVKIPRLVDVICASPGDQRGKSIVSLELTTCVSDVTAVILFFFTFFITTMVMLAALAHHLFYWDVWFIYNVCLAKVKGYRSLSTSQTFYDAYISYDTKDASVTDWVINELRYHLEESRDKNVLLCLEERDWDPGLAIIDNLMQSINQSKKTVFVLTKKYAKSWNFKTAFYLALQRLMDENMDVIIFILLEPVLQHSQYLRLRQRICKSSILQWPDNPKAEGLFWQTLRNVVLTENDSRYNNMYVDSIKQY
Nature of the assay: HEK293 NFKB reporter assay, human TLR8. It counts as cell-based. On the procedure: as §1, §2

Where [3] appears, read: Table 1a, HEK293 reporter cells expressing human TLR7, read-out: HEK293 hTLR7 EC50.
[4] abbreviates: Table 1a, HEK293 reporter cells expressing human TLR8, read-out: HEK293 hTLR8 EC50.
Where [5] appears, read: Table 1c, HEK293 reporter cells expressing human TLR7, read-out: HEK293 hTLR7 EC50.
[6] abbreviates: Table 1c, HEK293 reporter cells expressing human TLR8, read-out: HEK293 hTLR8 EC50.
The mark [7] stands for this setting: Table 1b, HEK293 reporter cells expressing human TLR7, read-out: HEK293 hTLR7 EC50.
Setting [8] is: Table 1b, HEK293 reporter cells expressing human TLR8, read-out: HEK293 hTLR8 EC50.

We go through 19 compounds from patent US20200390899A1, “AMINOBENZAZEPINE COMPOUNDS, IMMUNOCONJUGATES, AND USES THEREOF” (BOLT BIOTHERAPEUTICS, INC., priority 2019, published 2020).

pEC50: −log10 of the molar value. Where two headings read alike, the source gives them in different places.

In general, pEC50 refers to the EC50 on a negative log10 scale, so that one unit is a factor of ten.

Consider `CCCN(CCCNC(=O)NC(C)(C)C)C(=O)C1=Cc2ccc(-c3cccc(S(=O)(=O)N4CC(CO)C4)c3)cc2N=C(N)C1` [Bz-11, 2-amino-N-[3-(tert-butylcarbamoylamino)propyl]-8-[3-[3-(hydroxymethyl)azetidin-1-yl]sulfonylphenyl]-N-propyl-3H-1-benzazepine-4-carboxamide], for which the pEC50 in assay [1] (setting [3]) was 5.11; in assay [2] (setting [4]) it was 5.86.

As for `CCCN(CCC)C(=O)C1=Cc2ccc(C(=O)Nc3cncc(CNC(=O)OC(C)(C)C)c3)cc2N=C(N)C1` [Bz-7], the pEC50 in assay [1] (setting [3]) was below 5.05; in assay [2] (setting [4]) it was 8.37.

`CCCN(CCC)C(=O)C1=Cc2ccc(C#CCCCN)cc2N=C(N)C1` [Bz-68]: the pEC50 is 5.34 in assay [1] (setting [5]) and 5.51 in assay [2] (setting [6]).

In the case of `CCCN(Cc1ccc(CN2CCNCC2)cc1)C(=O)C1=Cc2ccc(-c3cccc(S(=O)(=O)N4CC(CO)C4)c3)cc2N=C(N)C1` [Bz-49], the pEC50 in assay [1] (setting [5]) and in assay [2] (setting [6]) was at most 5.05 throughout.

`CCCN(OCC)C(=O)C1=Cc2ccc(-c3cccc(S(=O)(=O)N4CC(CO)C4)c3)cc2N=C(N)C1` [Bz-29, 2-amino-N-ethoxy-8-[3-[3-(hydroxylmethyl)azetidin-1-yl]sulfonylphenyl]-N-propyl-3H-1-benzazepine-4-carboxamide]: the results for the negative logarithm of the EC50 (pEC50) in assay [1] (setting [7]) and in assay [2] (setting [8]) were below 5.05 and 7.49, respectively.

On to `CCCN(CCCNC(=O)c1ccc(OCC)cc1)C(=O)C1=Cc2ccc(-c3cccc(S(=O)(=O)N4CC(CO)C4)c3)cc2N=C(N)C1` [Bz-51], for which the pEC50 in assay [1] (setting [5]) was 5.85; in assay [2] (setting [6]), 5.72.

Regarding `CCCN(CCCNC(=O)OCC)C(=O)C1=Cc2ccc(-c3cccc(S(=O)(=O)N4CC(CO)C4)c3)cc2N=C(N)C1` [Bz-13, ethyl N-[3-[[2-amino-8-[3-[3-(hydroxymethyl)azetidin-1-yl]sulfonylphenyl]-3H-1-benzazepine-4-carbonyl]-propyl-amino]propyl]carbamate], the figures for the pEC50 in assay [1] and in assay [2] were 5.86 and 6.87, respectively.

Turning to `CCCN(CCCN)C(=O)C1=Cc2ccc(-c3cccc(S(=O)(=O)N4CC(CO)C4)c3)cc2N=C(N)C1` [Bz-17, 2-amino-N-(3-aminopropyl)-8-[3-[3-(hydroxymethyl)azetidin-1-yl]sulfonylphenyl]-N-propyl-3H-1-benzazepine-4-carboxamide], the pEC50 in assay [1] (setting [7]) and in assay [2] (setting [8]) was below 5.05 in each case.

As for `CCCN(CCCOCCOCCN)C(=O)C1=Cc2ccc(-c3cccc(S(=O)(=O)N4CC(CO)C4)c3)cc2N=C(N)C1` [Bz-21, 2-amino-N-(3-(2-(2-aminoethoxy)ethoxy)propyl)-8-(3-((3-(hydroxymethyl)azetidin-1-yl)sulfonyl)phenyl)-N-propyl-3H-benzo[b]azepine-4-carboxamide], the pEC50 in assay [1] (setting [7]) and in assay [2] (setting [8]) was below 5.05 in each case.

For the compound `CCCN(CCCNC(=O)OC(C)(C)C)C(=O)C1=Cc2ccc(-c3ccc(C(=O)N4CCCC4)cc3)cc2N=C(N)C1` [Bz-4], the pEC50 in assay [1] (setting [3]) was 5.83; in assay [2] (setting [4]), 5.77.

On to `CCCN(CC#CCNC(=O)OC(C)(C)C)C(=O)C1=Cc2ccc(-c3cccc(S(=O)(=O)N4CC(CN(C)C)C4)c3)cc2N=C(N)C1` [Bz-28, tert-butyl N-[4-[[2-amino-8-[3-[3-[(dimethylamino)methyl]azetidin-1-yl]sulfonylphenyl]-3H-1-benzazepine-4-carbonyl]-propyl-amino]but-2-ynyl]carbamate], for which the pEC50 in assay [1] (setting [7]) is 5.37; in assay [2] (setting [8]), 7.37.

Regarding `CCCN(CCCNC(=O)OC(C)(C)C)C(=O)C1=Cc2ccc(C(=O)Nc3ccc(N4CCC(C(=O)NCCNC(C)=O)CC4)nc3)cc2N=C(N)C1` [Bz-16, tert-butyl (3-(8-((6-(4-((2-acetamidoethyl)carbamoyl)piperidin-1-yl)pyridin-3-yl)carbamoyl)-2-amino-N-propyl-3H-benzo[b]azepine-4-carboxamido)propyl)carbamate], the values for the pEC50 in assay [1] (setting [3]) and in assay [2] (setting [4]) were below 5.05 and 5.98, respectively.

With `CCCN(CCC(F)(F)F)C(=O)C1=Cc2ccc(-c3cccc(S(=O)(=O)N4CC(CO)C4)c3)cc2N=C(N)C1` [Bz-31, 2-amino-8-[3-[3-(hydroxymethyl)azetidin-1-yl]sulfonylphenyl]-N-propyl-N-(3,3,3-trifluoropropyl)-3H-1-benzazepine-4-carboxamide], the pEC50 in assay [1] (setting [7]) is below 5.05; in assay [2] (setting [8]), 6.47.

On to `CCCN(CCCNC(=O)c1ccc(OCC)cc1)C(=O)C1=Cc2ccc(C(=O)Nc3ccccc3)cc2N=C(N)C1` [Bz-34, 2-amino-N^4-(3-(4-ethoxybenzamido)propyl)-N^8-phenyl-N^4-propyl-3H-benzo[b]azepine-4,8-dicarboxamide], for which the pEC50 is below 5.05 in assay [1] (setting [7]) and 5.98 in assay [2] (setting [8]).

As for `CCCN(CC#CCNC(=O)OC(C)(C)C)C(=O)C1=Cc2ccc(-c3cccc(S(=O)(=O)N4CC(CO)C4)c3)cc2N=C(N)C1` [Bz-26, tert-butyl N-[4-[[2-amino-8-[3-[3-(hydroxymethyl)azetidin-1-yl]sulfonylphenyl]-3H-1-benzazepine-4-carbonyl]-propyl-amino]but-2-ynyl]carbamate], the pEC50 in assay [1] (setting [7]) was below 5.05; in assay [2] (setting [8]) it was 6.50.

With `CCCN(CCC)C(=O)C1=Cc2ccc(C#CCCCNC(=O)OC(C)(C)C)cc2N=C(N)C1` [Bz-67], the figures for the pEC50 in assay [1] (setting [5]) and in assay [2] (setting [6]) were 5.41 and 5.69, respectively.

`CCCN(OCC(F)(F)F)C(=O)C1=Cc2ccc(-c3cccc(S(=O)(=O)N4CC(CO)C4)c3)cc2N=C(N)C1` [Bz-73]: the pEC50 in assay [1] (setting [5]) was 5.35; in assay [2] (setting [6]), 6.92.

Consider `CCCN(CCCNc1ncccn1)C(=O)C1=Cc2ccc(-c3cccc(S(=O)(=O)N4CC(CO)C4)c3)cc2N=C(N)C1` [Bz-23, 2-amino-8-[3-[3-(hydroxymethyl)azetidin-1-yl]sulfonylphenyl]-N-propyl-N-[3-(pyrimidin-2-ylamino)propyl]-3H-1-benzazepine-4-carboxamide], for which the pEC50 in assay [1] (setting [7]) is 5.61; in assay [2] (setting [8]) it was 5.93.

For the compound `CCCN(C/C=C/CN)C(=O)C1=Cc2ccc(-c3cccc(S(=O)(=O)N4CC(CO)C4)c3)cc2N=C(N)C1` [Bz-22, 2-amino-N-[(E)-4-aminobut-2-enyl]-8-[3-[3-(hydroxymethyl)azetidin-1-yl]sulfonylphenyl]-N-propyl-3H-1-benzazepine-4-carboxamide], the pEC50 in assay [1] (setting [7]) and in assay [2] (setting [8]) was below 5.05 each time.
